Measurements published in ChEMBL document CHEMBL1201862, “PubChem BioAssay data set” (2004).
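Five compound concentrations were applied to cells in 96-well plates for 48 hours; endpoints were derived by simple linear interpolation of the resulting dose-response curve. Here, GI50 denotes the concentration required for 50% inhibition of growth.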 Activity calls are given as the source filed them. Rule as the data show it: active = GI50 up to about 1.1 µM and inactive = higher.

How the values were obtained:
Experiment in all cases: NCI anticancer screen, dose series, 48 h
[1] = tested on: HCT-116
[2] = tested on: OVCAR-3
[3] = tested on: A498
[4] = tested on: Hs-578T
[5] = tested on: SF-295
[6] = tested on: COLO 205
[7] = tested on: NCI-H23
[8] = tested on: Malme-3M
[9] = tested on: CCRF-CEM
[10] = tested on: TK-10
[11] = tested on: MDA-MB-435
[12] = tested on: NCI-H460
[13] = tested on: SF-268
[14] = tested on: NCI-H226
[15] = tested on: LOX IMVI
[16] = tested on: OVCAR-5
[17] = tested on: OVCAR-4
[18] = tested on: UACC-62
[19] = tested on: PC-3
[20] = tested on: HOP-62
[21] = tested on: CAKI-1
[22] = tested on: RPMI-8226
[23] = tested on: MOLT-4
[24] = tested on: A549
[25] = tested on: HL-60
[26] = tested on: SN12C
[27] = tested on: DU-145
[28] = tested on: SK-MEL-2
[29] = tested on: 786-0
[30] = tested on: NCI-H522
[31] = tested on: EKVX
[32] = tested on: HT-29
[33] = tested on: BT-549
[34] = tested on: U-251
[35] = tested on: M14
[36] = tested on: SW-620
[37] = tested on: HCC 2998
[38] = tested on: MCF7
[39] = tested on: MDA-N
[40] = tested on: MDA-MB-231
[41] = tested on: UACC-257
[42] = tested on: RXF 393
[43] = tested on: SNB-75
[44] = tested on: OVCAR-8
[45] = tested on: SK-MEL-28
[46] = tested on: K562
[47] = tested on: UO-31
[48] = tested on: KM12
[49] = tested on: SNB-19
[50] = tested on: SK-MEL-5
[51] = tested on: IGROV-1
[52] = tested on: HOP-92
[53] = tested on: SK-OV-3
[54] = tested on: T47D
[55] = tested on: HCT-15
[56] = tested on: SR
[57] = tested on: ACHN
[58] = tested on: NCI/ADR-RES

SMILES: O=[N+]([O-])C1=Cc2cc(Cl)ccc2OC1c1cccc2ccccc12 (stereo not drawn)
- GI50 [1]: 0.187 µM (active)
- GI50 [2]: 0.603 µM (active)
- GI50 [3]: 1.86 µM (inactive)
- GI50 [4]: 0.692 µM (active)
- GI50 [5]: 2.38 µM (inactive)
- GI50 [6]: 0.719 µM (active)
- GI50 [7]: 0.847 µM (active)
- GI50 [8]: 1.57 µM (inactive)
- GI50 [9]: 0.191 µM (active)
- GI50 [10]: 1.27 µM (inactive)
- GI50 [11]: 1.44 µM (inactive)
- GI50 [12]: 1.7 µM (inactive)
- GI50 [13]: 1.26 µM (inactive)
- GI50 [14]: 1.62 µM (inactive)
- GI50 [15]: 0.29 µM (active)
- GI50 [16]: 1.99 µM (inactive)
- GI50 [17]: 1.57 µM (inactive)
- GI50 [18]: 1.57 µM (inactive)
- GI50 [19]: 0.635 µM (active)
- GI50 [20]: 0.871 µM (active)
- GI50 [21]: 0.366 µM (active)
- GI50 [22]: 0.317 µM (active)
- GI50 [23]: 0.251 µM (active)
- GI50 [24]: 1.7 µM (inactive)
- GI50 [25]: 3.83 µM (inactive)
- GI50 [26]: 0.723 µM (active)
- GI50 [27]: 1.91 µM (inactive)
- GI50 [28]: 1.36 µM (inactive)
- GI50 [29]: 0.396 µM (active)
- GI50 [30]: 1.27 µM (inactive)
- GI50 [31]: 1.27 µM (inactive)
- GI50 [32]: 0.637 µM (active)
- GI50 [33]: 0.436 µM (active)
- GI50 [34]: 1.56 µM (inactive)
- GI50 [35]: 1.23 µM (inactive)
- GI50 [36]: 0.149 µM (active)
- GI50 [37]: 0.984 µM (active)
- GI50 [38]: 0.521 µM (active)
- GI50 [39]: 1 µM (active)
- GI50 [40]: 1.77 µM (inactive)
- GI50 [41]: 1.34 µM (inactive)
- GI50 [42]: 0.405 µM (active)
- GI50 [43]: 0.6 µM (active)
- GI50 [44]: 0.614 µM (active)
- GI50 [45]: 1.34 µM (inactive)
- GI50 [46]: 0.371 µM (active)
- GI50 [47]: 1.26 µM (inactive)
- GI50 [48]: 1.79 µM (inactive)
- GI50 [49]: 1.65 µM (inactive)
- GI50 [50]: 1.26 µM (inactive)
- GI50 [51]: 0.625 µM (active)
- GI50 [52]: 1.34 µM (inactive)
- GI50 [53]: 1.61 µM (inactive)
- GI50 [54]: 0.442 µM (active)
- GI50 [55]: 0.37 µM
- GI50 [56]: 0.224 µM (active)
- GI50 [57]: 1.52 µM (inactive)
- GI50 [58]: 2.07 µM (inactive)
